From PubChem BioAssay (NCI)
Where “and” joins values, the source holds several entries; their conditions need not be identical. Identical values can stand only once.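 Five compound concentrations were applied to cells in 96-well plates for 48 hours; endpoints were derived by simple linear interpolation of the resulting dose-response curve. GI50: concentration for 50% inhibition of growth. TGI: concentration producing complete growth inhibition.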

Experiments:
Assay in all cases: inhibition of tumour cell growth, NCI panel, 48 h
SW-620 colon = test system: SW-620 colon
CCRF-CEM leukemia = test system: CCRF-CEM leukemia
DU-145 prostate = test system: DU-145 prostate
HOP-92 NSCLC = test system: HOP-92 NSCLC
SN12C renal = test system: SN12C renal
T-47D breast = test system: T-47D breast
OVCAR-3 ovarian = test system: OVCAR-3 ovarian
SK-OV-3 ovarian = test system: SK-OV-3 ovarian
MCF7 breast = test system: MCF7 breast
NCI/ADR-RES ovarian = test system: NCI/ADR-RES ovarian

Row | SMILES | GI50 (SW-620 colon) | TGI (SW-620 colon) | GI50 (CCRF-CEM leukemia) | TGI (CCRF-CEM leukemia) | GI50 (DU-145 prostate) | TGI (DU-145 prostate) | GI50 (HOP-92 NSCLC) | TGI (HOP-92 NSCLC) | GI50 (SN12C renal) | TGI (SN12C renal) | GI50 (T-47D breast) | TGI (T-47D breast) | GI50 (OVCAR-3 ovarian) | TGI (OVCAR-3 ovarian) | GI50 (SK-OV-3 ovarian) | TGI (SK-OV-3 ovarian) | GI50 (MCF7 breast) | TGI (MCF7 breast) | GI50 (NCI/ADR-RES ovarian) | TGI (NCI/ADR-RES ovarian)
1 | [Cl][Cd][Cl] | 19.5 µM and 17.2 µM | 37.1 µM and 76.7 µM | 20.7 µM and 9.08 µM | 56.7 µM and 89.7 µM | 24 µM | 63.6 µM | > 80.2 µM and 15.2 µM | 35.3 µM | > 69 µM and 53 µM | 158 µM | 9.63 µM | 19.5 µM | 3.26 µM and 12.1 µM and 6.94 µM | 8 µM and 25.9 µM and 15.3 µM | 44.3 µM and 12.4 µM | > 60 µM and 26 µM | 9.11 µM | 19.2 µM | 120 µM | 277 µM
2 | Cn1c(=O)c(Oc2ccc(F)cc2F)cc2cnc(NCCS(C)(=O)=O)nc21 | > 25 µM | > 25 µM | > 25 µM | > 25 µM | > 25 µM | > 25 µM | > 25 µM | > 25 µM | > 25 µM | > 25 µM | > 25 µM | > 25 µM | > 25 µM | > 25 µM | > 25 µM | > 25 µM | > 25 µM | > 25 µM | > 25 µM | > 25 µM
3 | O=C1OC(c2ccccc2)=N/C1=C\c1cccc(F)c1 |  | > 100 µM |  | 72.7 µM |  | > 100 µM |  | > 100 µM |  | > 100 µM |  | > 100 µM |  | > 100 µM |  | > 100 µM |  | > 100 µM |  | 69.9 µM
4 | COc1ccc(Nc2cc(C)nc(N3CCN(c4ccnc5cc(Cl)ccc45)CC3)n2)cc1 | 2.73 µM | 13.2 µM | 2.85 µM | > 100 µM | 6.57 µM | > 100 µM | 1.04 µM | 5.59 µM | 2.8 µM | > 100 µM | 1.99 µM | 6.59 µM | 2.31 µM | 6.15 µM | 4.81 µM | > 100 µM | 0.284 µM | 4.51 µM | 2.48 µM | 8.43 µM
5 | Cn1cnc([N+](=O)[O-])c1Sc1ncn[nH]1 | 61.1 µM | > 100 µM | 28.6 µM | > 100 µM | 63.4 µM | > 100 µM | 29.2 µM | > 100 µM | > 100 µM | > 100 µM | 17 µM | > 100 µM | 47.3 µM | > 100 µM | > 100 µM | > 100 µM | > 100 µM | > 100 µM | > 100 µM | > 100 µM
6 | O=[N+]([O-])c1ccc(S(=O)(=O)Cc2ccccc2)c2nonc12 |  | 48.6 µM |  | 67.8 µM |  | 36.3 µM |  | 39.7 µM |  | 28.5 µM |  | 39.8 µM |  | 37.2 µM |  | > 100 µM |  | 43 µM |  | 68 µM
7 | O=C(Nc1ccc(I)cc1F)c1cc(Cl)ccc1O | 0.737 µM | 12.7 µM | 1.73 µM | 10 µM | 0.681 µM | > 100 µM | 0.167 µM | 0.505 µM | 0.365 µM | 4.47 µM | 0.294 µM | 2.57 µM | 0.413 µM | 10.7 µM | 0.615 µM | 2.64 µM | 0.552 µM | > 19.8 µM | 0.4 µM | 3.54 µM
8 | OCCN1CCN(CC/C=C2\c3ccccc3Sc3ccc(Cl)cc32)CC1 | 2.38 µM and 1.91 µM | 5.48 µM and 4.01 µM | 1.61 µM and 3.29 µM | 4.58 µM and 11.9 µM | 5.18 µM and 7.27 µM | 17.4 µM and 19.7 µM | 1.02 µM and 2.44 µM | 6.1 µM and 14.1 µM | 7.12 µM and 7.01 µM | 27.4 µM and 20.4 µM | 2.9 µM and 2.79 µM | 10.4 µM and 11.5 µM | 2.88 µM and 5.66 µM | 13.1 µM and 17.8 µM | 6.48 µM and 5.76 µM | 19.1 µM and 16.9 µM | 1.52 µM and 2.21 µM | 3.34 µM and 5.45 µM | 10.3 µM and 8.06 µM | 24.8 µM and 21.8 µM
9 | Cc1nc(Nc2nc3ccccc3o2)nc(-c2cccc([N+](=O)[O-])c2)c1C(=O)Nc1ccc(F)c(Cl)c1 | 3.09 µM | > 100 µM | 2.34 µM | 24.2 µM | 2.95 µM | > 100 µM | 1.39 µM | 4.66 µM | 2.64 µM | 20.1 µM | 1.41 µM | 9.18 µM | 1.02 µM | 13.8 µM | 2.8 µM | > 100 µM | 2.04 µM | 9.73 µM | 2.33 µM | 10.5 µM
10 | CSc1cccc(NC(=O)OC2CCCCCCCCCCC2)c1 |  | 45.9 µM |  | 45.5 µM |  | > 100 µM |  | > 100 µM |  | 33.2 µM |  | > 100 µM |  | 29.6 µM |  | 57.9 µM |  | 60.4 µM |  | 64.5 µM
11 | Cc1c(Sc2ccccc2)[n+](=O)c2cc(Cl)c(Cl)cc2n1[O-] | 29.5 µM | 96.1 µM | 32.8 µM | > 100 µM | 23.4 µM | 44.8 µM | 20 µM | 51.4 µM | > 100 µM | > 100 µM | 36.2 µM | > 100 µM | 23.3 µM | 60.4 µM | > 100 µM | > 100 µM | 38.3 µM | > 100 µM | > 100 µM | > 100 µM
12 | Oc1ccc(Cl)cc1CNc1nc2ccccc2[nH]1 | 15.5 µM | 31.9 µM | 17.9 µM | 88.5 µM | 16.2 µM | 32.4 µM | 2.37 µM | 10.4 µM | 13.7 µM | 29.4 µM | 13.3 µM | 47.9 µM | 12.7 µM | 29 µM | 16.8 µM | 34.8 µM | 10.4 µM | 33.1 µM | 11.5 µM | 37.8 µM
13 | CC(C)CCN[C@@H]1CCc2cc(O)c(N3CC(=O)NS3(=O)=O)c(F)c2C1 | > 100 µM | > 100 µM | > 100 µM | > 100 µM | > 100 µM | > 100 µM | 16.1 µM | > 100 µM | > 100 µM | > 100 µM | > 100 µM | > 100 µM | > 100 µM | > 100 µM | > 100 µM | > 100 µM | > 100 µM | > 100 µM | > 100 µM | > 100 µM
14 | CNC(=O)OCC1C2=C(C(=O)C(C)=C(N)C2=O)N2CC3C(N3C)C12OC (stereo not given) |  | 24.2 µM |  | > 100 µM |  | 55 µM |  | > 100 µM |  | > 100 µM |  | > 100 µM |  | > 100 µM |  | > 100 µM |  | > 100 µM |  | > 100 µM
15 | O=C1OC(CN2CCOCC2)CN1/N=C/c1ccc([N+](=O)[O-])o1 (stereo not given) |  | > 100 µM |  | > 100 µM |  | > 100 µM |  | > 100 µM |  | 92 µM |  | > 100 µM |  | 67.4 µM |  | > 100 µM |  | > 100 µM |  | > 100 µM
16 | CC(C)COC(=O)c1ccc2[nH]c(O)c(C=Nc3ccc(S(N)(=O)=O)cc3)c2c1 | 0.671 µM | 3.83 µM | 0.823 µM | 15.3 µM | 0.805 µM | 3.8 µM | 1.45 µM | 4.22 µM | 1.21 µM | 7.94 µM | 2.51 µM | 12.6 µM | 0.802 µM | 2.28 µM | 2.19 µM | 6.25 µM | 1.24 µM | 4.5 µM | 5.36 µM | 21.2 µM
17 | CN(C)CCN1C(=O)c2cccc3cccc(c23)C1=O | 11.7 µM | > 25 µM | 14.5 µM | > 25 µM | 12.4 µM | > 25 µM | 14.8 µM | > 25 µM | 12.7 µM | > 25 µM | > 25 µM | > 25 µM | 21.5 µM | > 25 µM | 24.5 µM | > 25 µM | 9.31 µM | > 25 µM | 19.6 µM | > 25 µM
18 | O=C(Nc1ccc(Cl)c(Cl)c1)OCCN1c2ccccc2Sc2ccccc21 |  | > 10 µM |  | > 10 µM |  | > 10 µM |  | > 10 µM |  | > 10 µM |  | > 10 µM |  | > 10 µM |  | > 10 µM |  | > 10 µM |  | > 10 µM
19 | CCc1nc(N)nc(N)c1-c1ccc(Cl)c(N=CN(C)C)c1 |  | > 100 µM |  | 97.6 µM |  | > 100 µM |  | > 100 µM |  | > 100 µM |  | > 100 µM |  | > 100 µM |  | > 100 µM |  | > 100 µM |  | > 100 µM
20 | O=C1C=CC(O)C2C1CC13SSC4(CC5C(=O)C=CC(O)C5N4C1=O)C(=O)N23 (stereo not given) |  | 0.136 µM |  | 1.95 µM |  | 1.07 µM |  | 0.573 µM |  | 0.743 µM |  | 2.53 µM |  | 0.53 µM |  | 14.1 µM |  | > 100 µM |  | 0.093 µM
21 | C=CCCCc1ccc(C(O)CCCCCCCCCCCC)o1 (stereo not given) | 22.8 µM | 62 µM | 23.1 µM | 56.8 µM | 19 µM | 35.4 µM | 15.4 µM | 31.9 µM | 17.2 µM | 31.4 µM | 15.1 µM | 34.6 µM | 19 µM | 38.8 µM | 16.4 µM | 37.2 µM | 17.6 µM | 48.3 µM | 17.4 µM | 34.2 µM
22 | C=C1[C@@H]([C@@]2(C)C=CC(=O)C(C)(C)[C@@H]2CC(=O)OC)CC[C@@]2(C)C(c3ccoc3)OC(=O)[C@H]3O[C@]132 (stereo not given in full) |  | > 100 µM |  | > 100 µM |  | > 100 µM |  | > 100 µM |  | > 100 µM |  | > 100 µM |  | > 100 µM |  | > 100 µM |  | > 100 µM |  | > 100 µM
